Legend:
[1] = system: Normal human fibroblasts (IMR90); assay: Compound toxicity towards normal proliferative, senescent or quiescent fibroblasts (XTT cell viability assay); format: cell-based; conditions: IC50 against normal, proliferating cells divided by IC50 versus senescent (doxorubicin-induced) cells, three days treatment
Procedure: Normal human fibroblasts (IMR90) and patient-derived β-galactosidase (GLB1) or α-fucosidase (FUCA1) deficient cells were used to determine change in cell viability after exposure to compound. Cells were cultured with DMEM and 10% heat inactivated FBS under a controlled atmosphere of 5% carbon dioxide and 5% oxygen, […] and confirmed by the absence of senescence associated β-galactosidase (SA-β-Gal) staining and the capacity to re-enter the cell cycle. Senescence was induced by treatment with doxorubicin and confirmed by SA-β-Gal positive staining and the lack of DNA replication. Cells were treated with compound for three days. Cell viability was determined by mitochondrial dehydrogenase activity (XTT assay. Cayman Chemical) at ten concentrations of the tested compound. To generate dose-response curves, data was fitted to a four-parameter Hill function and the IC50 was determined at Y=0.5 viability. The senolytic index (S.I.) for each compound was determined by dividing the IC50 against normal, proliferating cells by the IC50 versus senescent cells. Senolytic index data is shown in Table 1 with compounds having S.I.<1 (−), S.I>1 (+), S.I.>5 (++) and S.I>10 (+++).

[2] = system: Mouse embryonic fibroblast cells (MEFs); assay: Viability of proliferating or senescent mouse embryonic fibroblasts (DAPI/PI staining); format: cell-based; conditions: 4 days
Procedure: Mouse embryonic fibroblast cells were incubated with 300 nM doxorubicin for 24 hrs to induce senescence. Cells were washed and after incubation in media for 7 days, senescence was confirmed by staining for SA-β-Gal (Itahana et al., Methods Mol. Biol. 371 (2007) 21-31) and lack of incorporation of 5-ethynyl-2′-deoxyuridine (EdU) (see Yu et al., J. Immunol. Methods 350 (2009) 29-35).
Proliferating or senescent MEFs were treated with increasing concentrations of either FURGal (101) or 5-fluorouridine (FUR) (102) for 4 days. Cells were washed and stained with 4′,6-diamidino-2-phenylindole (DAPI) and propidium iodide (PI) and the fraction of viable cells was assessed from the ratio of PI-positive nuclei over PI-negative nuclei.

SMILES | Senolytic Index (S.I.) [1] | toxicity towards senescent MEFs ([2]; doxorubicin-induced senescent MEFs, FIG. 1B) | cell viability / toxicity towards proliferating cells ([2]; proliferating MEFs, increasing concentrations (as high as 4 mM), FIG. 1A)
CC(C)c1cc(C(=O)N2Cc3ccc(CN4CCN(C)CC4)cc3C2)c(O)cc1O[C@@H]1O[C@H](CO)[C@H](O)[C@H](O)[C@H]1O (single isomer, unassigned) [(46)] | − (S.I.<1 (−)) | – | –
CCNC(=O)c1noc(-c2cc(C(C)C)c(O[C@@H]3O[C@H](CO)[C@H](O)[C@H](O)[C@H]3O)cc2O)c1-c1ccc(CN2CCOCC2)cc1 (single isomer, unassigned) [(48)] | + (S.I>1 (+)) | – | –
CCNC(=O)c1noc(-c2cc(C(C)C)c(O)cc2O[C@@H]2O[C@H](CO)[C@H](O)[C@H](O)[C@H]2O)c1-c1ccc(CN2CCOCC2)cc1 (single isomer, unassigned) [(49)] | + (S.I>1 (+)) | – | –
CC(C)c1cc(-c2n[nH]c(=O)n2-c2ccc3c(ccn3C)c2)c(O)cc1O[C@@H]1O[C@H](CO)[C@H](O)[C@H](O)[C@H]1O (single isomer, unassigned) [(127)] | + (S.I>1 (+)) | – | –
CC(C)c1cc(-c2n[nH]c(=O)n2-c2ccc3c(ccn3C)c2)c(O[C@@H]2O[C@H](CO)[C@H](O)[C@H](O)[C@H]2O)cc1O (single isomer, unassigned) [(128)] | − (S.I.<1 (−)) | – | –
Cc1[nH]c2ccccc2c1CCNCc1ccc(/C=C/C(=O)NO[C@@H]2O[C@H](CO)[C@H](O)[C@H](O)[C@H]2O)cc1 [(26), (E)-3-(4-(((2-(2-Methyl-1H-indol-3-yl)ethyl)amino)methyl)phenyl)-N-(((2S,3R,4S,5R,6R)-3,4,5-trihydroxy-6-(hydroxymethyl)tetrahydro-2H-pyran-2-yl)oxy)acrylamide] | ++ (S.I.>5 (++)) | – | –
Cc1[nH]c2ccccc2c1CCNCc1ccc(/C=C/C(=O)NO[C@@H]2O[C@@H](C)[C@@H](O)[C@@H](O)[C@@H]2O)cc1 [(35), (E)-3-(4-(((2-(2-Methyl-1H-indol-3-yl)ethyl)amino)methyl)phenyl)-N-(((2S,3S,4R,5S,6S)-3,4,5-trihydroxy-6-methyltetrahydro-2H-pyran-2-yl)oxy)acrylamide] | + (S.I>1 (+)) | – | –
CC(C)c1cc(C(=O)N2Cc3ccc(CN4CCN(C)CC4)cc3C2)c(O[C@@H]2O[C@H](CO)[C@H](O)[C@H](O)[C@H]2O)cc1O [(47)] | − (S.I.<1 (−)) | – | –
O=c1[nH]c(=O)n([C@@H]2O[C@H](CO)[C@@H](O)[C@H]2O)cc1F [(102), 5-fluorouridine, reference compound] | – | equitoxic | dramatically reduces cell viability
Cn1cc(CNCC2CCN(c3ncc(C(=O)NO[C@@H]4O[C@H](CO)[C@H](O)[C@H](O)[C@H]4O)cn3)CC2)c2ccccc21 [(112), 2-(4-((((1-methyl-1H-indol-3-yl)methyl)amino)methyl)piperidin-1-yl)-N-(((2S,3R,4S,5R,6R)-3,4,5-trihydroxy-6-(hydroxymethyl)tetrahydro-2H-pyran-2-yl)oxy)pyrimidine-5-carboxamide] | + (S.I>1 (+)) | – | –
CC(=O)OC[C@H]1O[C@@H](ONC(=O)c2cnc(N3CCC(CNCc4cn(C)c5ccccc45)CC3)nc2)[C@H](OC(C)=O)[C@@H](OC(C)=O)[C@H]1OC(C)=O [(114), (2R,3S,4S,5R,6S)-2-(Acetoxymethyl)-6-((2-(4-((((1-methyl-1H-indol-3-yl)methyl)amino)methyl)piperidin-1-yl)pyrimidine-5-carboxamido)oxy)tetrahydro-2H-pyran-3,4,5-triyl Triacetate] | + (S.I>1 (+)) | – | –
C[C@@H]1O[C@@H](ONC(=O)c2cnc(N3CCC(CNCc4cn(C)c5ccccc45)CC3)nc2)[C@@H](O)[C@H](O)[C@@H]1O [(120), 2-(4-((((l-Methyl-1H-indol-3-yl)methyl)amino)methyl)piperidin-1-yl)-N-(((2S,3S,4R,5S,6S)-3,4,5-trihydroxy-6-methyltetrahydro-2H-pyran-2-yl)oxy)pyrimidine-5-carboxamide] | + (S.I>1 (+)) | – | –
CCC(=O)O[C@H]1[C@H](OC(=O)CC)[C@H](ONC(=O)/C=C/c2ccc(CNCCc3c(C)[nH]c4ccccc34)cc2)O[C@@H](C)[C@H]1OC(=O)CC [(121), (2S,3R,4R,5S,6S)-2-Methyl-6-(((E)-3-(4-(((2-(2-methyl-1H-indol-3-yl)ethyl)amino)methyl)phenyl)acrylamido)oxy)tetrahydro-2H-pyran-3,4,5-triyl Tripropionate] | +++ (S.I>10 (+++)) | – | –
Cc1[nH]c2ccccc2c1CCNCc1ccc(/C=C/C(=O)NO[C@@H]2O[C@@H](C)[C@@H](OC(=O)C(C)C)[C@@H](OC(=O)C(C)C)[C@@H]2OC(=O)C(C)C)cc1 [(122), (2S,3R,4R,5S,6S)-2-Methyl-6-(((E)-3-(4-(((2-(2-methyl-1H-indol-3-yl)ethyl)amino)methyl)phenyl)acrylamido)oxy)tetrahydro-2H-pyran-3,4,5-triyl tris(2-methylpropanoate)] | + (S.I>1 (+)) | – | –
COc1ccc(-c2nc(N3CCOCC3)c3sc(CN(C)c4ncc(C(=O)NO[C@@H]5O[C@H](COC(C)=O)[C@H](OC(C)=O)[C@H](OC(C)=O)[C@H]5OC(C)=O)cn4)cc3n2)cn1 [(123), (2R,3S,4S,5R,6S)-2-(Acetoxymethyl)-6-((2-(((2-(6-methoxypyridin-3-yl)-4-morpholinothieno[3,2-d]pyrimidin-6-yl)methyl)(methyl)amino)pyrimidine-5-carboxamido)oxy)tetrahydro-2H-pyran-3,4,5-triyl Triacetate] | + (S.I>1 (+)) | – | –
COc1ccc(-c2nc(N3CCOCC3)c3sc(CN(C)c4ncc(C(=O)NO[C@@H]5O[C@H](CO)[C@H](O)[C@H](O)[C@H]5O)cn4)cc3n2)cn1 [(124), 2-(((2-(6-Methoxypyridin-3-yl)-4-morpholinothieno[3,2-d]pyrimidin-6-yl)methyl)(methyl)amino)-N-(((2S,3R,4S,5R,6R)-3,4,5-trihydroxy-6-(hydroxymethyl)tetrahydro-2H-pyran-2-yl)oxy)pyrimidine-5-carboxamide] | − (S.I.<1 (−)) | – | –
COc1ccc(-c2nc(N3CCOCC3)c3sc(CN(C)c4ncc(C(=O)NO[C@@H]5O[C@@H](C)[C@@H](OC(C)=O)[C@@H](OC(C)=O)[C@@H]5OC(C)=O)cn4)cc3n2)cn1 [(125), (2S,3S,4R,5R,6S)-2-((2-(((2-(6-Methoxypyridin-3-yl)-4-morpholinothieno[3,2-d]pyrimidin-6-yl)methyl)(methyl)amino)pyrimidine-5-carboxamido)oxy)-6-methyltetrahydro-2H-pyran-3,4,5-triyl Triacetate] | ++ (S.I.>5 (++)) | – | –
COc1ccc(-c2nc(N3CCOCC3)c3sc(CN(C)c4ncc(C(=O)NO[C@@H]5O[C@@H](C)[C@@H](O)[C@@H](O)[C@@H]5O)cn4)cc3n2)cn1 [(126), 2-(((2-(6-methoxypyridin-3-yl)-4-morpholinothieno[3,2-d]pyrimidin-6-yl)methyl)(methyl)amino)-N-(((2S,3S,4R,5S,6S)-3,4,5-trihydroxy-6-methyltetrahydro-2H-pyran-2-yl)oxy)pyrimidine-5-carboxamide] | − (S.I.<1 (−)) | – | –
CC(=O)O[C@H]1[C@H](OC(C)=O)[C@H](ONC(=O)c2cnc(N3CCC(CNCc4cn(C)c5ccccc45)CC3)nc2)O[C@@H](C)[C@H]1OC(C)=O [Compound (115), (2S,3R,4R,5S,6S)-2-Methyl-6-((2-(4-((((1-methyl-1H-indol-3-yl)methyl)amino)methyl)piperidin-1-yl)pyrimidine-5-carboxamido)oxy)tetrahydro-2H-pyran-3,4,5-triyl Triacetate] | +++ (S.I>10 (+++)) | – | –
